Publication PMC7822874, “Chemoprotective antimalarials identified through quantitative high-throughput screening of Plasmodium blood and liver stage parasites” (Scientific Reports, 2021)
Read-outs that look alike come from different tables or passages of the source.

What was measured:
[1] = test system: Plasmodium falciparum Dd2 asexual blood stage parasites; experiment: microbe, parasite or virus in culture; set-up: species or system Plasmodium falciparum Dd2 in human erythrocytes; single determination (one 11-point concentration-response curve); details: Plasmodium falciparum, DD2, Erythrocyte, 72 h
in vitro = details: human
[2] = HepG2-A16-CD81EGFP cells, uninfected

| SMILES | AC50 ([1]; read-out: AC50) | viability at 48 h, 1 µM (in vitro; [2]) | viability at 48 h, 3 µM (in vitro; [2]) | other results |
| --- | --- | --- | --- | --- |
| CCOC(=O)c1c(CNc2ccncc2)n(C)c2cc(Br)c(O)cc12 [MLS000714612-01] | 2660 nM | 90% | 86% |  |
| CCc1cccc(-n2c(=O)c3cccnc3n2CC(=O)NCc2ccc(C)cc2)c1 [NCGC00128446-01] |  |  |  | AC50 [1]: 1680 nM; viability (in vitro): 83.3% |
| Cn1nc(C(F)(F)F)c(-c2cccc(C(F)(F)F)c2)c1NC(=O)Nc1ccc(F)cc1 [MLS000830770-01] | 2370 nM | 98% | 103% |  |
| CC(OC(=O)CCc1cc(C(C)(C)C)c(O)c(C(C)(C)C)c1)C(=O)NC1CC1 (stereo not drawn) [MLS001159754-01] | 4730 nM | 104% | 101% |  |
| CC(C)Cc1cc(C(=O)Nc2cc(Br)ccc2O)no1 [MLS000116399-01] | 4730 nM | 120% | 110% |  |
| O=c1c(=Cc2ccco2)sc2n1CN(c1cccc(Br)c1)CN=2 [MLS000535198-01] | 9440 nM | 103% | 103% |  |
| Cc1nc(N2CCC(C)CC2)c2c(C)c(C(=O)Nc3ccc(C(F)(F)F)cc3)sc2n1 [MLS000682669-01] | 7500 nM | 108% | 99% |  |
| CCN1CCC(Nc2ccnc3cc(Cl)ccc23)CC1 [MLS000737411-01] | 188 nM | 99% | 100% |  |
| Cc1ccc(-n2c(C)cc(C(=O)OCC(=O)N(C)C3CCS(=O)(=O)C3)c2C)cc1 (stereo not drawn) [MLS000098265-01] | 4730 nM |  |  | viability at 66 h (in vitro; [2]): 101% |
| COc1ccc(CNCC(O)(c2ccc(Cl)cc2)c2ccc(Cl)cc2)cc1 [MLS000325709-01] | 1500 nM | 98% | 96% |  |
| Oc1ccccc1Nc1nc(-c2ccccc2O)nc2ccccc12 [MLS001164904-01] | 944 nM |  |  | viability at 66 h (in vitro; [2]): 101% |
| Cc1onc(-c2ccc(Cl)cc2)c1-c1ccnn1S(=O)(=O)c1ccc(Cl)cc1 [MLS001111121-01] | 1880 nM |  |  | viability at 66 h (in vitro; [2]): 100% |
| COc1ccc(CN2CCCC(C(=O)c3ccc(Cl)cc3)C2)c(O)c1 (stereo not drawn) [MLS000998855-01] | 531 nM |  |  | viability at 48 h, 1 µM (in vitro): 101%; viability at 48 h, 3 µM (in vitro): 103% |
| CCOC(=O)c1c(C)[nH]c(C(=O)CSc2nnc(C3CC3)n2N)c1C [MLS000536141-01] | 1500 nM | 92% | 89% |  |
| O=C1C=C(O)C=CC1=CNNc1ccnc2cc(Cl)ccc12 [MLS000759655-01] | 596 nM | 101% |  | viability at 48 h (in vitro; [2]): 101% |
| COCCCNc1nc2cc(OC)c(OC)cc2c2nc(-c3ccccc3)nn12 [NCGC00112853-01] | 237 nM | 105% | 99% |  |
| COc1ccc(CCn2c(=N)c(C(=O)NC3CCCC3)cc3c(=O)n4cccc(C)c4nc32)cc1 [MLS001147827-01] | 750 nM |  |  | viability at 66 h (in vitro; [2]): 94.5% |
| CCOCc1cnc(C)nc1NCC(=O)c1c(C)[nH]c2cc(C)ccc12 [MLS000595215-01] | 4220 nM | 97% | 94% |  |
| CCN1CCN(Cc2ccc(NC(=O)c3ccc(C)c(NC(=O)C(=O)c4c[nH]c5ccccc45)c3)cc2C(F)(F)F)CC1 [MLS003105967-01] | 1500 nM |  |  | viability at 66 h (in vitro; [2]): 106% |

| SMILES | AC50 ([1]; read-out: AC50) | viability at 48 h, 1 µM (in vitro; [2]) | viability at 48 h, 3 µM (in vitro; [2]) | other results |
| --- | --- | --- | --- | --- |
| Clc1ccc2c(NCc3ccccn3)ccnc2c1 [MLS001178012-01] | 2110 nM |  |  | viability at 66 h (in vitro; [2]): 107% |
| COc1cc(O)c(C(CCN2CCCC(C)C2)c2ccc(N(C)C)cc2)c(OC)c1 (stereo not drawn) [MLS000879516-01] | 1680 nM | 110% |  | viability at 48 h (in vitro; [2]): 110% |
| O=S(=O)(c1ccc(Cl)cc1)N1CCN(C(S)=NCC2CCCO2)CC1 (stereo not drawn) [MLS001124005-01] | 1880 nM | 85% | 85% |  |
| Cc1cc(C)cc(/N=C/c2[nH]c3ccc(Br)c(Cl)c3c2O)c1 [MLS000586008-01] | 11900 nM | 104% | 99% |  |
| CCCc1cc(=O)oc2cc(C)cc(OCC(=O)NC3CC3)c12 [MLS001159103-01] | 4730 nM | 121% | 104% |  |
| CC(NCc1ccccc1)c1ccccc1O (stereo not drawn) [MLS000850790-01] | 5310 nM |  |  | viability at 66 h (in vitro; [2]): 96.3% |
| COc1cc(NC(=O)c2cc3c(Cl)nc4ccccc4c3s2)cc(OC)c1OC [MLS000582472-01] | 4730 nM | 90% | 84% |  |
| COc1ccc(N2/C(=C/C(C)=O)NC(=O)c3c(C)cc(C)nc32)cc1 [MLS000088720-01] | 3350 nM |  |  | viability at 66 h (in vitro; [2]): 103% |
| O=C1c2ccccc2C2=Nc3ccccc3SC(c3ccccc3F)C12 (stereo not drawn) [MLS000562246-01] | 4730 nM | 99% | 95% |  |
| Nc1nonc1-n1nnc(C(=O)N/N=C/c2cccs2)c1-c1ccc2c(c1)OCO2 [MLS001142649-01] | 1680 nM | 92% | 91% |  |
| COc1cc(O)c(C(CCN2CCN(c3ccccc3)CC2)c2ccc(N(C)C)cc2)c(OC)c1 (stereo not drawn) [MLS000879536-01] | 596 nM | 102% | 99% |  |
| CCCn1cc(SCC(=O)NCc2ccco2)c2ccccc21 [MLS000095681-01] | 8410 nM | 90% | 87% |  |
| CCC(=O)N(C1=C(NC(C)C)C(=O)c2ccccc2C1=O)C(C)C [MLS000696323-01] | 2370 nM | 106% | 105% |  |
| CCCc1nnc(NC(=O)c2cn(CC)c3cc(N4CCN(C)CC4)c(F)cc3c2=O)s1 [MLS001049245-01] | 8410 nM |  |  | viability at 66 h (in vitro; [2]): 105% |
| COc1ccc(-c2oc3ccccc3c2C#Cc2cncn2C)cc1 [MLS002402884-01] | 1060 nM | 112% | 95% |  |
| CCN(CC)CCC(c1ccc(OC)cc1)c1c(O)cc(OC)cc1OC (stereo not drawn) [MLS000879488-01] | 6680 nM |  |  | viability at 66 h (in vitro; [2]): 99.6% |
| Oc1ccccc1CN1CCCC(N2CCN(c3cccc(C(F)(F)F)c3)CC2)C1 (stereo not drawn) [MLS000998830-01] | 1330 nM | 103% | 105% |  |
| CCCCn1c2c(c(=N)c3c1CCC3)CCC2 [MLS000080126-01] | 8410 nM | 111% | 80% |  |
| CC(C)Oc1ccc(C(CCNCc2ccc(O)cc2)c2ccccc2)cc1 (stereo not drawn) [MLS001164341-01] | 668 nM |  |  | viability at 66 h (in vitro; [2]): 102% |

| SMILES | AC50 ([1]; read-out: AC50) | viability at 48 h, 1 µM (in vitro; [2]) | viability at 48 h, 3 µM (in vitro; [2]) | other results |
| --- | --- | --- | --- | --- |
| Cc1ccccc1OCC(O)CN(Cc1ccccc1O)C1CCCCC1 (stereo not drawn) [MLS001002964-01] | 119 nM | 85% | 90% |  |
| CCN(CC)CCCC(C)Nc1cc(C=Cc2ccccc2Cl)nc2cc(Cl)ccc12 (stereo not drawn) [NCGC00160524-01] | 841 nM | 103% | 99% |  |
| Cc1cc(N2CCN(C)CC2)nc2ccc(NC(=O)c3ccc(Br)o3)cc12 [MLS000086536-01] | 6680 nM | 104% | 104% |  |
| CCC(=O)N1CCc2cc(Br)cc(S(=O)(=O)N3CCCC(C(=O)NC(C)(C)C)C3)c21 (stereo not drawn) [MLS000937025-01] | 3350 nM | 98.3% |  | viability at 48 h (in vitro; [2]): 98.3% |
| O=C(/C=C/c1ccco1)NC(S)=Nc1ccccc1N1CCCC1 [MLS000663784-01] | 2660 nM | 107% |  | viability at 48 h (in vitro; [2]): 107% |
| O=S(=O)(c1ccccc1)c1nnn2c1nc(NC1CCN(Cc3ccccc3)CC1)c1cc(Cl)ccc12 [MLS000925207-01] | 2990 nM |  |  | viability at 66 h (in vitro; [2]): 101% |
| O=c1c(-c2ccc(Br)cc2)coc2c(CN3CCCCC3)c(O)ccc12 [MLS001214902-01] | 2110 nM |  |  | viability at 66 h (in vitro; [2]): 98.2% |
| Oc1ccc(Br)cc1-c1cc(-c2ccc(Cl)cc2)[nH]n1 [MLS000551526-01] | 2660 nM | 88% | 87% |  |
| CCCc1cc(=O)oc2cc(C)cc(OCC(=O)Nc3cccnc3)c12 [MLS001160340-01] | 531 nM | 106% | 99% |  |
| COC(=O)[C@H]1[C@H]2C[C@@H]3c4[nH]c5cc(OC)ccc5c4CCN3C[C@H]2C[C@@H](OC(=O)/C=C/c2cc(OC)c(OC)c(OC)c2)[C@@H]1OC [MLS002153878-01] | 5310 nM |  |  | viability at 48 h (in vitro): 106%; viability at 48 h, 1 µM (in vitro): 106% |
| CC(C)Oc1ccc2c(c1)OC(c1ccccc1)(C(F)(F)F)NC2=O (stereo not drawn) [MLS000392812-01] | 2660 nM | 105% | 98% |  |
| OC(CN1CCN(c2ccccn2)CC1)Cn1c2ccc(Cl)cc2c2cc(Cl)ccc21 (stereo not drawn) [MLS000529159-01] | 2990 nM |  |  | viability at 66 h (in vitro; [2]): 102% |
| CCOC(=O)c1cnc2ccc(OC)cc2c1Nc1ccc(N2CCN(C)CC2)cc1 [MLS001164177-01] | 1680 nM | 98% | 94% |  |
| COc1cccc(OC)c1C(=O)NC(S)=Nc1ccc2c(c1)C(=O)N(C)C2=O [MLS000331897-01] | 944 nM |  |  | viability at 66 h (in vitro; [2]): 103% |
| CCn1c2c(c(=N)c3ccccc31)CCC2 [MLS001047391-01] | 6680 nM |  |  | viability at 66 h (in vitro; [2]): 97.3% |
| O=C(NCCCNc1ccnc2cc(Cl)ccc12)c1ccccc1F [MLS001215856-01] | 841 nM | 85% | 88% |  |
| CCCc1cc(=O)oc2cc(C)cc(OC(C)C(=O)NCC(O)c3ccccc3)c12 (stereo not drawn) [MLS001158075-01] | 841 nM | 84% | 88% |  |
| Cc1cccn2c(=O)c3cc(C(=O)NC4CCCC4)c(=N)n(CCc4ccccc4)c3nc12 [MLS001221260-01] | 1880 nM | 95% | 92% |  |
| COc1ccc(CCNC(=O)c2cc(C(=O)c3cc(Cl)ccc3O)cn(CCc3ccc(OC)cc3)c2=O)cc1 [MLS000402334-01] | 3760 nM |  |  | viability at 66 h (in vitro; [2]): 105% |
